Measured values taken from patent US20070128217A1 (priority 2003, published 2007).

Tests used:
[1] = tested on: recombinant human anti-SARS-CoV antibody 03-018; type: binding; set-up: Binding of antibody 03-018 to linear peptides of the N protein of SARS-CoV Urbani / Binding of antibody 03-018 to looped/cyclic peptides of the N protein of SARS-CoV Urbani: unit not given here
[2] = tested on: rabbit serum obtained by immunizing a rabbit with the SARS-CoV strain Frankfurt 1; type: binding; set-up: Binding of a rabbit serum to linear peptides / Binding of a rabbit serum to looped peptides / Rabbit serum linear peptides / Rabbit serum looped peptides / Binding of a rabbit serum to linear peptides of protein N of SARS-CoV Urbani (Rabbit serum linear peptides) / Binding of a rabbit serum to looped/cyclic peptides of protein N of SARS-CoV Urbani (Rabbit serum looped peptides): unit not given here
[3] = tested on: control sera (pooled serum of ten healthy LUMC hospital workers; commercial negative donor pooled serum from the Dutch bloodbank); type: binding, human; set-up: Binding of Control serum LUMC to linear peptides / Binding of Control serum Blood-bank to linear peptides / Binding of Control serum LUMC to looped peptides / Binding of Control Serum Blood-Bank to Looped peptides / Binding of Control serum LUMC to linear peptides of the protein M of SARS-CoV Urbani / Binding of Control serum Blood-bank to linear peptides of the protein M of SARS-CoV Urbani / Binding of Control serum LUMC to looped peptides of the protein M of SARS-CoV Urbani / Binding of Control Serum Blood-Bank to Looped peptides of the protein M of SARS-CoV Urbani: unit not given here
[4] = tested on: antibodies in sera from SARS patients (sera 1a, 1b, 2, 6, 37, 62, London, SARS-yellow, SARS-green); type: binding, human; set-up: Binding of serum 6 to linear peptides of protein X1 of SARS-CoV Urbani / Binding of serum 37 to linear peptides of protein X1 of SARS-CoV Urbani / Binding of serum 6 to looped/cyclic peptide (PEPSCAN-ELISA) / Binding of serum 37 to looped/cyclic peptide (PEPSCAN-ELISA) / Binding of serum 37 to looped/cyclic peptides of protein X1 of SARS-CoV Urbani / Binding of serum 6 to linear peptides of protein X2 / Binding of serum 37 to linear peptides of protein X2 / Binding of serum 37 to looped/cyclic peptides of protein X2 of SARS-CoV Urbani / Binding of serum 6 to linear peptides of protein M of SARS-CoV Urbani / Binding of serum 37 to linear peptides of protein M of SARS-CoV Urbani / Binding of serum 6 to looped/cyclic peptides of protein M of SARS-CoV Urbani / Binding of serum 37 to looped/cyclic peptides of protein M of SARS-CoV Urbani / Binding of serum 6 to linear peptides of protein X3 of SARS-CoV Urbani / Binding of serum 37 to linear peptides of protein X3 of SARS-CoV Urbani / Binding of serum 37 to looped/cyclic peptides of protein X3 of SARS-CoV Urbani / Binding of serum 6 to linear peptides of protein X4 of SARS-CoV Urbani / Binding of serum 37 to linear peptides of protein X4 of SARS-CoV Urbani / Binding of serum 37 to looped/cyclic peptides of protein X4 of SARS-CoV Urbani / Binding of serum 6 to linear peptides of protein X5 of SARS-CoV Urbani / Binding of serum 37 to linear peptides of protein X5 of SARS-CoV Urbani / Binding of serum 37 to looped/cyclic peptides of protein X5 of SARS-CoV Urbani / Binding of serum 6 to linear peptides of protein N of SARS-CoV Urbani / Binding of serum 37 to linear peptides of protein N of SARS-CoV Urbani / Binding of serum 6 to linear peptide (PEPSCAN-ELISA) / Binding of serum 1a to looped/cyclic peptides of protein N of SARS-CoV Urbani / Binding of serum 1b to looped/cyclic peptides of protein N of SARS-CoV Urbani / Binding of serum 2 to looped/cyclic peptides of protein N of SARS-CoV Urbani / Binding of serum 6 to looped/cyclic peptides of protein N of SARS-CoV Urbani / Binding of serum 37 to looped/cyclic peptides of protein N of SARS-CoV Urbani / Binding of serum 62 to looped/cyclic peptides of protein N of SARS-CoV Urbani / Binding of serum London to looped/cyclic peptides of protein N of SARS-CoV Urbani / Binding of serum SARS-green to looped/cyclic peptides of protein N of SARS-CoV Urbani: unit not given here

Sequence | Binding of antibody 03-018 to linear peptides of the N protein of SARS-CoV Urbani [1] | Binding of antibody 03-018 to looped/cyclic peptides of the N protein of SARS-CoV Urbani [1] | Binding of a rabbit serum to linear peptides of protein N of SARS-CoV Urbani (Rabbit serum linear peptides) [2] | Binding of a rabbit serum to looped/cyclic peptides of protein N of SARS-CoV Urbani (Rabbit serum looped peptides) [2] | Binding of Control Serum Blood-Bank to Looped peptides [3] | Binding of Control serum Blood-bank to linear peptides [3] | Binding of Control serum LUMC to linear peptides [3] | Binding of Control serum LUMC to looped peptides [3] | Binding of serum 1a to linear peptide (PEPSCAN-ELISA) [4] | Binding of serum 1a to looped/cyclic peptides of protein N of SARS-CoV Urbani [4] | Binding of serum 1b to linear peptide (PEPSCAN-ELISA) [4] | Binding of serum 1b to looped/cyclic peptides of protein N of SARS-CoV Urbani [4] | Binding of serum 2 to linear peptide (PEPSCAN-ELISA) [4] | Binding of serum 2 to looped/cyclic peptides of protein N of SARS-CoV Urbani [4] | Binding of serum 6 to linear peptide (PEPSCAN-ELISA) [4] | Binding of serum 6 to looped/cyclic peptides of protein N of SARS-CoV Urbani [4] | Binding of serum 37 to linear peptide (PEPSCAN-ELISA) [4] | Binding of serum 37 to looped/cyclic peptides of protein N of SARS-CoV Urbani [4] | Binding of serum 62 to linear peptide (PEPSCAN-ELISA) [4] | Binding of serum 62 to looped/cyclic peptides of protein N of SARS-CoV Urbani [4] | other results
SSRGNSPARMASGGG | 0.1 | 0.2 | 0.2 | 0.0 | 0.8 | 0.8 | 0.9 | 0.9 | 0.4 | 0.4 | 0.3 | 0.2 | 0.2 | 0.5 | 0.2 | 0.4 | 0.5 | 0.4 | 0.6 | 0.5 | Binding of serum London to linear peptide (PEPSCAN-ELISA) [4]: 0.5; Binding of serum London to looped/cyclic peptides of protein N of SARS-CoV Urbani [4]: 0.8; Binding of serum SARS-green to linear peptide (PEPSCAN-ELISA) [4]: 1.0; Binding of serum SARS-green to looped/cyclic peptides of protein N of SARS-CoV Urbani [4]: 0.6; Binding of serum SARS-yellow to linear peptide (PEPSCAN-ELISA) [4]: 0.7; Binding of serum SARS-yellow to looped/cyclic peptides of protein N of SARS-CoV Urbani [4]: 0.5
SSRSRGNSRNSTPGS | 0.1 | 0.2 | 0.1 | 0.0 | 0.5 | 0.6 | 0.5 | 0.5 | 0.8 | 0.3 | 0.5 | 0.1 | 0.1 | 0.3 | 0.2 | 0.1 | 0.6 | 0.4 | 0.5 | 0.3 | Binding of serum London to linear peptide (PEPSCAN-ELISA) [4]: 0.4; Binding of serum London to looped/cyclic peptides of protein N of SARS-CoV Urbani [4]: 0.3; Binding of serum SARS-green to linear peptide (PEPSCAN-ELISA) [4]: 0.1; Binding of serum SARS-green to looped/cyclic peptides of protein N of SARS-CoV Urbani [4]: 0.0; Binding of serum SARS-yellow to linear peptide (PEPSCAN-ELISA) [4]: 0.5; Binding of serum SARS-yellow to looped/cyclic peptides of protein N of SARS-CoV Urbani [4]: 0.1
SSRSSSRSRGNSRNS | 0.1 | 0.2 | 0.2 | 0.7 | 0.7 | 0.7 | 0.7 | 0.7 | 0.2 | 0.3 | 0.1 | 0.3 | 0.2 | 0.4 | 0.2 | 0.3 | 0.5 | 0.5 | 0.6 | 0.6 | Binding of serum London to linear peptide (PEPSCAN-ELISA) [4]: 0.5; Binding of serum London to looped/cyclic peptides of protein N of SARS-CoV Urbani [4]: 0.5; Binding of serum SARS-green to linear peptide (PEPSCAN-ELISA) [4]: 0.3; Binding of serum SARS-green to looped/cyclic peptides of protein N of SARS-CoV Urbani [4]: 0.3; Binding of serum SARS-yellow to linear peptide (PEPSCAN-ELISA) [4]: 0.7; Binding of serum SARS-yellow to looped/cyclic peptides of protein N of SARS-CoV Urbani [4]: 0.4
SSSRSRGNSRNSTPG | 0.1 | 0.2 | 0.1 | 0.4 | 0.5 | 0.7 | 0.6 | 0.5 | 0.4 | 0.2 | 0.2 | 0.1 | 0.2 | 0.3 | 0.1 | 0.2 | 0.5 | 0.4 | 0.5 | 0.3 | Binding of serum London to linear peptide (PEPSCAN-ELISA) [4]: 0.5; Binding of serum London to looped/cyclic peptides of protein N of SARS-CoV Urbani [4]: 0.3; Binding of serum SARS-green to linear peptide (PEPSCAN-ELISA) [4]: 0.2; Binding of serum SARS-green to looped/cyclic peptides of protein N of SARS-CoV Urbani [4]: 0.1; Binding of serum SARS-yellow to linear peptide (PEPSCAN-ELISA) [4]: 0.6; Binding of serum SARS-yellow to looped/cyclic peptides of protein N of SARS-CoV Urbani [4]: 0.1
